This is an account of results in ChEMBL document CHEMBL5370644, “Subplenones A-J: Dimeric Xanthones with Antibacterial Activity from the Endophytic Fungus Subplenodomus sp. CPCC 401465” (2023).

In brackets after ≈: the same amount, converted by molar mass.

Holding throughout (format): functional
Conditions in all cases: time 16-20 hrs

Assay [1] has as its system Staphylococcus aureus. The assay can be described thus: Antibacterial activity against methicillin-resistant Staphylococcus aureus ATCC 700698 assessed as bacterial growth inhibition incubated for 16 to 20 hrs by CLSI based two-fold serial dilution method.
Assay [2] deals with Enterococcus faecalis. The assay can be described thus: Antibacterial activity against vancomycin-sensitive Enterococcus faecalis ATCC 29212 assessed as bacterial growth inhibition incubated for 16 to 20 hrs by CLSI based two-fold serial dilution method.
In assay [3] the test system is Staphylococcus aureus. The assay can be described thus: Antibacterial activity against methicillin-sensitive Staphylococcus aureus ATCC 29213 assessed as bacterial growth inhibition incubated for 16 to 20 hrs by CLSI based two-fold serial dilution method.
Assay [4] has as its system Enterococcus faecium. The assay can be described thus: Antibacterial activity against vancomycin-resistant Enterococcus faecium ATCC 700221 assessed as bacterial growth inhibition incubated for 16 to 20 hrs by CLSI based two-fold serial dilution method.
Assay [5] concerns Enterococcus faecalis. The assay can be described thus: Antibacterial activity against vancomycin-resistant Enterococcus faecalis ATCC 51299 assessed as bacterial growth inhibition incubated for 16 to 20 hrs by CLSI based two-fold serial dilution method.
Assay [6] relates to Staphylococcus epidermidis. The assay can be described thus: Antibacterial activity against methicillin-sensitive Staphylococcus epidermidis ATCC 12228 assessed as bacterial growth inhibition incubated for 16 to 20 hrs by CLSI based two-fold serial dilution method.
For assay [7], the system named is Staphylococcus aureus. The assay can be described thus: Antibacterial activity against methicillin-resistant Staphylococcus aureus ATCC 43300 assessed as bacterial growth inhibition incubated for 16 to 20 hrs by CLSI based two-fold serial dilution method.

`CC1=C[C@H](O)[C@]2(O)C(=O)c3c(ccc(-c4ccc5c(c4O)C(=O)C4=C(O)C[C@@H](C)[C@H](O)[C@@]4(C)O5)c3O)O[C@@]2(C)[C@H]1O`: the minimum inhibitory concentration (MIC) (commonly the lowest concentration found to suppress growth) is 0.5 µg/mL (≈ 0.883 µM) in assay [1]; 2 µg/mL (≈ 3.53 µM) in assay [2]; 0.5 µg/mL (≈ 0.883 µM) in assay [3]; 1 µg/mL (≈ 1.77 µM) in assay [4]; 4 µg/mL (≈ 7.06 µM) in assay [5]; ≤ 0.125 µg/mL in assay [6]. The MIC in assay [7] was 0.5 µg/mL (≈ 0.883 µM).

Regarding `CC1=CC(O)=C2C(=O)c3c(ccc(-c4ccc5c(c4O)C(=O)C4=C(O)C[C@@H](C)[C@H](O)[C@@]4(C)O5)c3O)O[C@@]2(C)[C@H]1O`, the MIC in assay [1] is 0.25 µg/mL (≈ 0.456 µM); in assay [2], 2 µg/mL (≈ 3.65 µM); in assay [3], 0.5 µg/mL (≈ 0.912 µM); in assay [4] it was 1 µg/mL (≈ 1.82 µM); in assay [5], 4 µg/mL (≈ 7.29 µM); in assay [6] it was ≤ 0.125 µg/mL. Further, the MIC in assay [7] was found to be 0.5 µg/mL (≈ 0.912 µM).

Take `CC1=CC(O)=C2C(=O)c3c(ccc(-c4ccc(O)c(C(=O)c5c(O)cc(C)c(O)c5C)c4O)c3O)O[C@@]2(C)[C@H]1O`: the MIC in assay [1] was 0.5 µg/mL (≈ 0.915 µM); in assay [2] it was 2 µg/mL (≈ 3.66 µM); in assay [3], 1 µg/mL (≈ 1.83 µM); in assay [4], 1 µg/mL (≈ 1.83 µM); in assay [5], 4 µg/mL (≈ 7.32 µM); in assay [6], ≤ 0.125 µg/mL. For the same molecule, the MIC in assay [7] came out at 1 µg/mL (≈ 1.83 µM).

As to `CC1=CC(O)=C2C(=O)c3c(O)ccc(-c4ccc5c(c4O)C(=O)C4=C(O)C=C(C)[C@H](O)[C@]4(C)O5)c3O[C@]2(C)C1=O`, the MIC worked out at 0.5 µg/mL (≈ 0.918 µM) in assay [1]; 4 µg/mL (≈ 7.35 µM) in assay [2]; 1 µg/mL (≈ 1.84 µM) in assay [3]; 1 µg/mL (≈ 1.84 µM) in assay [4]; 4 µg/mL (≈ 7.35 µM) in assay [5]; 0.25 µg/mL (≈ 0.459 µM) in assay [6]. Besides, in assay [7], the MIC turned out to be 1 µg/mL (≈ 1.84 µM).

For the molecule `CC1=CC(O)=C2C(=O)c3c(ccc(-c4ccc5c(c4O)C(=O)C4=C(O)C=C(C)[C@H](O)[C@]4(C)O5)c3O)O[C@@]2(C)C1=O`, the MIC in assay [1] was 0.5 µg/mL (≈ 0.918 µM); in assay [2], 4 µg/mL (≈ 7.35 µM); in assay [3] it was 1 µg/mL (≈ 1.84 µM); in assay [4], 2 µg/mL (≈ 3.67 µM); in assay [5], 4 µg/mL (≈ 7.35 µM); in assay [6], ≤ 0.125 µg/mL. Moreover, the MIC in assay [7] came to 1 µg/mL (≈ 1.84 µM).

On to `CC1=CC(O)=C2C(=O)c3c(ccc(-c4ccc5c(c4O)C(=O)C4=C(O)C=C(C)[C@H](O)[C@]4(C)O5)c3O)O[C@@]2(C)[C@H]1O`, for which the MIC was found to be 2 µg/mL (≈ 3.66 µM) in assay [1]; 128 µg/mL (≈ 234 µM) in assay [2]; 2 µg/mL (≈ 3.66 µM) in assay [3]; 16 µg/mL (≈ 29.3 µM) in assay [4]; 128 µg/mL (≈ 234 µM) in assay [5]; 1 µg/mL (≈ 1.83 µM) in assay [6]. In addition, the MIC in assay [7] came to 4 µg/mL (≈ 7.32 µM).

With `CC1=CC(O)=C2C(=O)c3c(O)ccc(-c4ccc5c(c4O)C(=O)C4=C(O)C=C(C)[C@H](O)[C@]4(C)O5)c3O[C@@]2(C)C1=O`, the MIC was 0.25 µg/mL (≈ 0.459 µM) in assay [1]; 2 µg/mL (≈ 3.67 µM) in assay [2]; 0.5 µg/mL (≈ 0.918 µM) in assay [3]; 0.5 µg/mL (≈ 0.918 µM) in assay [4]; 2 µg/mL (≈ 3.67 µM) in assay [5]; ≤ 0.125 µg/mL in assay [6]. In addition, the MIC in assay [7] worked out at 0.5 µg/mL (≈ 0.918 µM).

On to `CC1=CC(O)=C2C(=O)c3c(ccc(-c4ccc5c(c4O)C(=O)C4=C(O)C=C(C)[C@H](O)[C@]4(C)O5)c3O)O[C@]2(C)C1=O`, for which the MIC in assay [1] is 0.25 µg/mL (≈ 0.459 µM); in assay [2], 2 µg/mL (≈ 3.67 µM); in assay [3], 0.5 µg/mL (≈ 0.918 µM); in assay [4], 0.5 µg/mL (≈ 0.918 µM); in assay [5], 2 µg/mL (≈ 3.67 µM); in assay [6], ≤ 0.125 µg/mL. Besides, in assay [7], the MIC stood at 0.5 µg/mL (≈ 0.918 µM).

On to `CC1=CC(O)=C2C(=O)c3c(ccc(-c4ccc5c(c4O)C(=O)[C@@]4(O)C(=O)C=C(C)[C@H](O)[C@]4(C)O5)c3O)O[C@]2(C)[C@H]1O`, for which the MIC stood at 4 µg/mL (≈ 7.11 µM) in assay [1]; 16 µg/mL (≈ 28.4 µM) in assay [2]; 4 µg/mL (≈ 7.11 µM) in assay [3]; 4 µg/mL (≈ 7.11 µM) in assay [4]; 16 µg/mL (≈ 28.4 µM) in assay [5]; 0.5 µg/mL (≈ 0.889 µM) in assay [6]. Also, the MIC in assay [7] came to 4 µg/mL (≈ 7.11 µM).

For the molecule `CC1=CC(O)=C2C(=O)c3c(ccc(-c4ccc5c(c4O)C(=O)C4=C(O)C=C(C)C(=O)[C@]4(C)O5)c3O)O[C@@]2(C)C1=O`, the MIC in assay [1] stood at 0.5 µg/mL (≈ 0.922 µM); in assay [2] it was 4 µg/mL (≈ 7.37 µM); in assay [3], 1 µg/mL (≈ 1.84 µM); in assay [4] it was 1 µg/mL (≈ 1.84 µM); in assay [5], 4 µg/mL (≈ 7.37 µM); in assay [6], 0.25 µg/mL (≈ 0.461 µM). In addition, the MIC in assay [7] came out at 1 µg/mL (≈ 1.84 µM).

On to `C[C@H]1COc2c(N3CCN(C)CC3)c(F)cc3c(=O)c(C(=O)O)cn1c23` [LEVOFLOXACIN ANHYDROUS], for which the MIC in assay [1] was 0.125 µg/mL (≈ 0.346 µM); in assay [2] it was 1 µg/mL (≈ 2.77 µM); in assay [3], 0.125 µg/mL (≈ 0.346 µM); in assay [4], > 64 µg/mL; in assay [5], 1 µg/mL (≈ 2.77 µM); in assay [6], 0.25 µg/mL (≈ 0.692 µM). The MIC in assay [7] is 0.125 µg/mL (≈ 0.346 µM).
